PubChem BioAssay AID1996
≈ marks a conversion by molar mass, not a printed value.

conditions: buffer; pH 7.4; 200.0 µM

Q: For `COc1ccc(/C=C/C(=O)NC2CCS(=O)(=O)C2)cc1` (stereo not given), which solubility kinetic is on record?
A: > 44.3 µg/mL

Q: Which solubility kinetic does the source give for `CN(C)c1ccc(C(O)Cc2nc3ccccc3n2C)cc1` (stereo not given) here?
A: 12.1 µg/mL (≈ 41 µM)

Q: For `O=C(COC(=O)c1cc(Cl)ccc1O)Nc1cc(C(F)(F)F)ccc1N1CCOCC1`, which solubility kinetic is on record?
A: 3.5 µg/mL (≈ 7.63 µM)

Q: Which solubility kinetic does the source give for `CCc1cc(=O)oc2cc(C)cc(OCC(=O)NC3CC3)c12` here?
A: 25 µg/mL (≈ 83 µM)

Q: With `COc1cccc(-c2cc(C(=O)NCc3ccco3)c3ccccc3n2)c1` as the molecule, how does the solubility kinetic read?
A: 11.6 µg/mL (≈ 32.4 µM)

Q: For `CCOc1cc2c(C#N)c(N3CCCCC3)nc(N)c2c(N)n1`, which solubility kinetic is on record?
A: 10.6 µg/mL (≈ 33.9 µM)

Q: Which solubility kinetic does the source give for `Cc1cc(C)n2nc(-c3ccco3)nc2n1` here?
A: > 32.1 µg/mL

Q: Which solubility kinetic does the source give for `COc1cc(S(=O)(=O)NCc2ccc3c(c2)OCO3)c(OC)cc1C` here?
A: 53.9 µg/mL (≈ 148 µM)

Q: Which solubility kinetic does the source give for `Cc1nc(N(C)Cc2ccccc2)c2c(C)c(C)sc2n1` here?
A: 4.2 µg/mL (≈ 14.1 µM)

Q: For `O=C(COC(=O)COc1ccc(Cl)cc1Cl)NC1CCS(=O)(=O)C1` (stereo not given), which solubility kinetic is on record?
A: > 59.4 µg/mL

Q: Which solubility kinetic does the source give for `CCCCC(=O)N=c1sc2cc([N+](=O)[O-])ccc2n1C` here?
A: < 0.2 µg/mL

Q: With `COc1cc(C2C(C#N)=C(SC)NC3=C2C(=O)CCC3)ccc1O` (stereo not given) as the molecule, how does the solubility kinetic read?
A: > 51.4 µg/mL

Q: Which solubility kinetic does the source give for `O=c1c2ccccc2n(CC(O)CN2CCCCC2)c2ccccc12` (stereo not given) here?
A: > 50.5 µg/mL

Q: Which solubility kinetic does the source give for `CN(c1ccccc1)S(=O)(=O)c1ccc2c(c1)OCCO2` here?
A: 43.2 µg/mL (≈ 141 µM)

Q: With `Nc1ccc(CCC(=O)N2CCCC2)cc1` as the molecule, how does the solubility kinetic read?
A: > 32.7 µg/mL

Q: For `CC(CN)(NS(=O)(=O)c1ccccc1)c1ccccc1` (stereo not given), which solubility kinetic is on record?
A: > 43.6 µg/mL

Q: Which solubility kinetic does the source give for `COc1ccc(NS(=O)(=O)c2cccc(NC(=O)COc3ccccc3[N+](=O)[O-])c2)cc1` here?
A: 2.9 µg/mL (≈ 6.34 µM)

Q: Which solubility kinetic does the source give for `O=C(O)c1cccnc1SC1CC(=O)N(c2ccccc2)C1=O` (stereo not given) here?
A: > 49.3 µg/mL

Q: Which solubility kinetic does the source give for `COc1cc2c(cc1Cl)C(=O)C(F)(c1ccccc1)C(=O)N2` (stereo not given) here?
A: 0.8 µg/mL (≈ 2.5 µM)

Q: Which solubility kinetic does the source give for `O=C(CCCn1c(=O)oc2ccccc21)Nc1ccccc1` here?
A: 42.2 µg/mL (≈ 142 µM)

Q: With `CN(c1cccc(NC(=O)c2cccc([N+](=O)[O-])c2)c1)S(C)(=O)=O` as the molecule, how does the solubility kinetic read?
A: > 52.4 µg/mL

Q: Which solubility kinetic does the source give for `O=C(CN1C(=O)/C(=C2/SC(=S)N(CCS(=O)(=O)O)C2=O)c2ccccc21)Nc1cccc(C(F)(F)F)c1` here?
A: 5.9 µg/mL (≈ 10.3 µM)

Q: With `Cn1c(=O)n(C)c2cc(S(=O)(=O)Nc3ccccc3C(=O)O)ccc21` as the molecule, how does the solubility kinetic read?
A: > 54.2 µg/mL

Q: For `CCOc1ccc(CC(=O)NCCc2cnc[nH]2)cc1`, which solubility kinetic is on record?
A: > 41 µg/mL

Q: For `COc1ccc(C(=O)Nc2ccc3nc(C)sc3c2)cc1OC`, which solubility kinetic is on record?
A: 3 µg/mL (≈ 9.14 µM)

Q: With `O=C(COC(=O)c1ccc(Br)o1)Nc1cccc(S(=O)(=O)N2CCCCC2)c1` as the molecule, how does the solubility kinetic read?
A: 9.3 µg/mL (≈ 19.7 µM)

Q: With `COc1cc2c(cc1OC)C(c1cccc([N+](=O)[O-])c1)NC(=O)C2` (stereo not given) as the molecule, how does the solubility kinetic read?
A: 26.1 µg/mL (≈ 79.5 µM)

Q: With `CCCn1c(=O)c2[nH]cnc2n(-c2ccccc2C)c1=O` as the molecule, how does the solubility kinetic read?
A: > 42.6 µg/mL

Q: Which solubility kinetic does the source give for `CCN(c1ccccc1)S(=O)(=O)c1ccc(C(=O)NCC(=O)Nc2ccc(F)c(F)c2F)cc1` here?
A: 2.8 µg/mL (≈ 5.7 µM)

Q: For `COc1ccc([N+](=O)[O-])cc1NC(=O)COC(C)=O`, which solubility kinetic is on record?
A: 35.7 µg/mL (≈ 133 µM)

Q: Which solubility kinetic does the source give for `O=C(NCC1CC1)Nc1ccc(Cl)cc1` here?
A: 18.9 µg/mL (≈ 84.1 µM)

Q: For `CC1(C)CC(=O)C2=C(C1)NC(=O)NC2c1ccc([N+](=O)[O-])cc1` (stereo not given), which solubility kinetic is on record?
A: > 47.3 µg/mL

Q: With `CCOC(=O)CSc1[nH]c2cc(OC)ccc2c1[N+](=O)[O-]` as the molecule, how does the solubility kinetic read?
A: 29.3 µg/mL (≈ 94.4 µM)

Q: Which solubility kinetic does the source give for `COc1ccc(CNC(=S)Nc2cccc(Cl)c2)cc1` here?
A: 3 µg/mL (≈ 9.78 µM)

Q: Which solubility kinetic does the source give for `Cc1cc(=O)n(C)c2ccccc12` here?
A: > 26 µg/mL

Q: With `CCOC(=O)C1=C(C)N(CC(C)C)C(=O)/C1=C\c1cccs1` as the molecule, how does the solubility kinetic read?
A: < 0.7 µg/mL

Q: For `CCn1c(=O)c2c(nc3n2CCN3c2ccccc2)n(C)c1=O`, which solubility kinetic is on record?
A: 3.1 µg/mL (≈ 9.96 µM)

Q: For `Cc1ccccc1NC(=O)OCc1ccccc1`, which solubility kinetic is on record?
A: 23.7 µg/mL (≈ 98.2 µM)

Q: Which solubility kinetic does the source give for `NC1=NC(=O)C(Cc2ccc(F)cc2)S1` (stereo not given) here?
A: 22 µg/mL (≈ 98.1 µM)

Q: With `O=C(COc1ccc(Br)cc1)N1CCNC1=O` as the molecule, how does the solubility kinetic read?
A: > 44.9 µg/mL

Q: For `COc1ccc(N2CCC(CNC(=O)Nc3ccccc3)C2)cc1` (stereo not given), which solubility kinetic is on record?
A: 14.8 µg/mL (≈ 45.5 µM)

Q: With `O=C(/C=C/c1ccccc1)NC(=S)Nc1ccccc1O` as the molecule, how does the solubility kinetic read?
A: 0.5 µg/mL (≈ 1.68 µM)

Q: For `Cc1ccc(C(C)C)c(OCCN2CCc3ccccc3C2)c1.Cl`, which solubility kinetic is on record?
A: < 0.7 µg/mL

Q: With `NC1=NC(=O)/C(=C/c2ccccc2OCC(=O)Nc2ccc(F)cc2)S1` as the molecule, how does the solubility kinetic read?
A: 3.8 µg/mL (≈ 10.2 µM)

Q: Which solubility kinetic does the source give for `Cc1ccc(C(=O)Oc2ccc(C(=S)N3CCOCC3)cc2)cc1` here?
A: 2.5 µg/mL (≈ 7.32 µM)

Q: With `COc1ccc(O)c(/C=N/N2CCOCC2)c1` as the molecule, how does the solubility kinetic read?
A: > 35.4 µg/mL

Q: Which solubility kinetic does the source give for `CCCc1ccc2oc(C(=O)N(C)Cc3nccs3)c(C)c2c1` here?
A: 14 µg/mL (≈ 42.6 µM)

Q: With `CCS(=O)(=O)N1CCc2nc(-c3ccccc3)sc2C1` as the molecule, how does the solubility kinetic read?
A: > 46.3 µg/mL

Q: For `O=C(Nc1cccc2ccccc12)c1ccc([N+](=O)[O-])cc1`, which solubility kinetic is on record?
A: 1 µg/mL (≈ 3.42 µM)

Q: With `COc1cc(CN2CCN(Cc3cccc(OC)c3OC)CC2)cc(OC)c1` as the molecule, how does the solubility kinetic read?
A: 47.8 µg/mL (≈ 124 µM)

Q: With `Cc1cc(C)c(NC(=O)CN2CCCCCC2)c(C)c1` as the molecule, how does the solubility kinetic read?
A: > 41.2 µg/mL

Q: Which solubility kinetic does the source give for `CSc1ncccc1C(=O)Nc1cccc(S(=O)(=O)N2CCCC2)c1` here?
A: > 56.6 µg/mL

Q: With `CC(C#N)(Cc1ccccc1)Nc1ccccc1` (stereo not given) as the molecule, how does the solubility kinetic read?
A: 18.8 µg/mL (≈ 79.6 µM)

Q: For `CCc1cc(S(N)(=O)=O)cc(CC)c1NC(C)=O`, which solubility kinetic is on record?
A: 38.4 µg/mL (≈ 142 µM)

Q: Which solubility kinetic does the source give for `CCSc1nsc(NC(=O)Nc2ccccc2OC)n1` here?
A: 2.6 µg/mL (≈ 8.38 µM)

Q: For `Cc1ccc(S(=O)(=O)N2CCN(C)CC2)cc1C`, which solubility kinetic is on record?
A: 31.3 µg/mL (≈ 117 µM)

Q: For `CCN1CCc2c(OCC(=O)Nc3cccc(C)c3)cccc2C1=O`, which solubility kinetic is on record?
A: > 50.8 µg/mL

Q: For `c1ccc2[nH]c(-c3cscn3)nc2c1`, which solubility kinetic is on record?
A: > 30.2 µg/mL

Q: Which solubility kinetic does the source give for `CN(CC(=O)Nc1ccc(Br)cc1)Cc1ccccc1` here?
A: 25.4 µg/mL (≈ 76.2 µM)

Q: For `CCn1c2ccccc2c2cc(NC(=O)c3cc(C)on3)ccc21`, which solubility kinetic is on record?
A: 2.3 µg/mL (≈ 7.2 µM)

Q: For `O=C(Nc1ccc(Cl)c(C(F)(F)F)c1)c1ccncc1`, which solubility kinetic is on record?
A: 38.7 µg/mL (≈ 129 µM)

Q: Which solubility kinetic does the source give for `CCOCCCNC(=O)/C(C#N)=C/c1ccc(C)o1` here?
A: 35.4 µg/mL (≈ 135 µM)

Q: For `CN(C(=S)NC(=O)C12CC3CC(CC(C3)C1)C2)c1ccc(O)cc1`, which solubility kinetic is on record?
A: 45.8 µg/mL (≈ 133 µM)

Q: Which solubility kinetic does the source give for `NC(=O)COC(=O)c1ccccc1OCc1ccccc1` here?
A: > 42.8 µg/mL

Q: For `N#Cc1c(/N=C/c2cccnc2)sc2c1CCCC2`, which solubility kinetic is on record?
A: 7.5 µg/mL (≈ 28.1 µM)

Q: For `CC1=NCCN1S(=O)(=O)c1c(C(C)C)cc(C(C)C)cc1C(C)C`, which solubility kinetic is on record?
A: 16.8 µg/mL (≈ 47.9 µM)

Q: Which solubility kinetic does the source give for `CC(C)CNC(=O)[C@@H]1CSC2c3ccccc3C(=O)N21` (stereo not given in full) here?
A: > 43.6 µg/mL

Q: For `Cl.OC(CNC1CCCC1)COc1ccc(Cl)cc1` (stereo not given), which solubility kinetic is on record?
A: > 45.9 µg/mL

Q: Which solubility kinetic does the source give for `O=C(c1ccc2ccccc2c1)N1CCc2ccccc21` here?
A: < 0.6 µg/mL

Q: For `Fc1ccc2nc(N3CCOCC3)sc2c1`, which solubility kinetic is on record?
A: > 35.7 µg/mL

Q: Which solubility kinetic does the source give for `CC(=O)c1ccc(OCCOc2ccc(Cl)c3cccnc23)cc1` here?
A: < 0.7 µg/mL

Q: For `CCc1ccc(C)[n+](CC(=O)c2cccs2)c1.[Cl-]`, which solubility kinetic is on record?
A: > 42.3 µg/mL

Q: Which solubility kinetic does the source give for `CC(C)N1C(=O)C(O)(C2COC(C)(C)CC2=O)c2ccccc21` (stereo not given) here?
A: > 47.6 µg/mL

Q: With `c1ccc2c(c1)CSc1ccccc1N2` as the molecule, how does the solubility kinetic read?
A: 6.8 µg/mL (≈ 31.9 µM)

Q: For `CS(=O)(=O)N(CC(=O)N1CCOCC1)c1ccccc1`, which solubility kinetic is on record?
A: > 44.8 µg/mL

Q: For `Cc1cccc(-c2noc(CN(C)C(=O)c3ccoc3C)n2)c1`, which solubility kinetic is on record?
A: 40.9 µg/mL (≈ 131 µM)

Q: Which solubility kinetic does the source give for `Cc1occc1C(=O)Nc1cccc([N+](=O)[O-])c1C` here?
A: 36 µg/mL (≈ 138 µM)

Q: Which solubility kinetic does the source give for `O=C(Nc1ccccc1N1CCCC1)c1ccc([N+](=O)[O-])o1` here?
A: 44.9 µg/mL (≈ 149 µM)

Q: Which solubility kinetic does the source give for `O=C(Nc1cccc2ccccc12)c1cccc([N+](=O)[O-])c1` here?
A: 1.4 µg/mL (≈ 4.79 µM)

Q: Which solubility kinetic does the source give for `Cc1ccn2cc(CCNC(=O)C3CC=CCC3C(=O)O)nc2c1` (stereo not given) here?
A: 45.7 µg/mL (≈ 140 µM)

Q: For `O=C(NC1CCCCCC1)c1cc2ccccc2oc1=O`, which solubility kinetic is on record?
A: 3.4 µg/mL (≈ 11.9 µM)

Q: With `O=C(COc1ccccc1)NCCSCc1ccccc1Cl` as the molecule, how does the solubility kinetic read?
A: 14.7 µg/mL (≈ 43.8 µM)

Q: For `Cc1ccc(NC(=S)Nc2ccc(F)cc2)cc1C`, which solubility kinetic is on record?
A: 12.2 µg/mL (≈ 44.5 µM)

Q: Which solubility kinetic does the source give for `CC(Sc1nc2ccccc2[nH]1)C(=O)Nc1ccccc1F` (stereo not given) here?
A: 43.9 µg/mL (≈ 139 µM)

Q: With `Nc1nc2c(ccc3ccccc32)s1` as the molecule, how does the solubility kinetic read?
A: 27.4 µg/mL (≈ 137 µM)
